Data as given in the NIST ThermoML archive (doi:10.1021/acs.jced.8b00153).
“And” between values parts separate entries of the source, which are not always exact repeats. Equal entries are not always repeated.

Conditions: for surface tension liquid-gas: Drop volume; for viscosity / speed of sound / mass density / vapor or sublimation pressure: Liquid; for viscosity: Capillary tube (Ostwald / Ubbelohde) method; for speed of sound: Frequency=3 MHz, Single path-length method; for mass density: Vibrating tube method; for vapor or sublimation pressure: Ebulliometric method (Recirculating still)

CCc1ccco1 [2-ethylfuran]
Conditions	surface tension liquid-gas [mN/m]	vapor or sublimation pressure [kPa]
278.15 K	27.22	–
280.65 K	26.91	–
283.15 K	26.59	–
285.65 K	26.31	–
288.15 K	26.01	–
289.96 K	–	4.96
290.65 K	25.62	–
292.18 K	–	5.57
293.15 K	25.32	–
293.77 K	–	6.05
295.65 K	25.09	–
295.94 K	–	6.77
297.39 K	–	7.29
298.15 K	24.78	–
299.52 K	–	8.105
300.65 K	24.43	–
301.86 K	–	9.08
303.15 K	24.12	–
304.58 K	–	10.35
305.65 K	23.81	–
306.32 K	–	11.27
308.15 K	23.51	–
308.82 K	–	12.64
310.65 K	23.22	–
312.73 K	–	15.06
313.15 K	22.91	–

Conditions	mass density	speed of sound [m/s]	viscosity [mPa·s]
278.15 K, 100 kPa	920.97 kg/m3	1281	0.6327
280.65 K, 100 kPa	918.26 kg/m3	1270.8	0.6126
283.15 K, 100 kPa	915.55 kg/m3 and 915.5 kg/m3	1259.4	0.5934
283.15 K, 2000 kPa	917.27 kg/m3	–	–
283.15 K, 5000 kPa	919.69 kg/m3	–	–
283.15 K, 7000 kPa	921.41 kg/m3	–	–
283.15 K, 10000 kPa	923.87 kg/m3	–	–
283.15 K, 15000 kPa	927.84 kg/m3	–	–
283.15 K, 20000 kPa	931.59 kg/m3	–	–
283.15 K, 25000 kPa	935.19 kg/m3	–	–
283.15 K, 30000 kPa	938.66 kg/m3	–	–
283.15 K, 35000 kPa	942.04 kg/m3	–	–
283.15 K, 40000 kPa	945.33 kg/m3	–	–
283.15 K, 45000 kPa	948.5 kg/m3	–	–
283.15 K, 50000 kPa	951.53 kg/m3	–	–
283.15 K, 55000 kPa	954.61 kg/m3	–	–
283.15 K, 60000 kPa	957.6 kg/m3	–	–
283.15 K, 65000 kPa	960.38 kg/m3	–	–
285.65 K, 100 kPa	912.83 kg/m3	1248.7	0.5733
288.15 K, 100 kPa	910.1 kg/m3 and 910.08 kg/m3	1238.5	0.556
288.15 K, 2000 kPa	911.89 kg/m3	–	–
288.15 K, 5000 kPa	914.37 kg/m3	–	–
288.15 K, 7000 kPa	916.19 kg/m3	–	–
288.15 K, 10000 kPa	918.68 kg/m3	–	–
288.15 K, 15000 kPa	922.7 kg/m3	–	–
288.15 K, 20000 kPa	926.63 kg/m3	–	–
288.15 K, 25000 kPa	930.32 kg/m3	–	–
288.15 K, 30000 kPa	933.89 kg/m3	–	–
288.15 K, 35000 kPa	937.37 kg/m3	–	–
288.15 K, 40000 kPa	940.66 kg/m3	–	–
288.15 K, 45000 kPa	943.92 kg/m3	–	–
288.15 K, 50000 kPa	947.13 kg/m3	–	–
288.15 K, 55000 kPa	950.18 kg/m3	–	–
288.15 K, 60000 kPa	953.28 kg/m3	–	–
288.15 K, 65000 kPa	956.1 kg/m3	–	–
290.65 K, 100 kPa	907.37 kg/m3	1227.6	0.5394
293.15 K, 100 kPa	904.64 kg/m3 and 904.65 kg/m3	1216.7	0.5214
293.15 K, 2000 kPa	906.44 kg/m3	–	–
293.15 K, 5000 kPa	909.05 kg/m3	–	–
293.15 K, 7000 kPa	910.93 kg/m3	–	–
293.15 K, 10000 kPa	913.5 kg/m3	–	–
293.15 K, 15000 kPa	917.66 kg/m3	–	–
293.15 K, 20000 kPa	921.69 kg/m3	–	–
293.15 K, 25000 kPa	925.54 kg/m3	–	–
293.15 K, 30000 kPa	929.07 kg/m3	–	–
293.15 K, 35000 kPa	932.7 kg/m3	–	–
293.15 K, 40000 kPa	936.06 kg/m3	–	–
293.15 K, 45000 kPa	939.48 kg/m3	–	–
293.15 K, 50000 kPa	942.66 kg/m3	–	–
293.15 K, 55000 kPa	945.78 kg/m3	–	–
293.15 K, 60000 kPa	948.91 kg/m3	–	–
293.15 K, 65000 kPa	951.86 kg/m3	–	–
295.65 K, 100 kPa	901.9 kg/m3	1205.2	0.5061
298.15 K, 100 kPa	899.15 kg/m3 and 899.11 kg/m3	1194.9	0.4917
298.15 K, 2000 kPa	901.01 kg/m3	–	–
298.15 K, 5000 kPa	903.73 kg/m3	–	–
298.15 K, 7000 kPa	905.65 kg/m3	–	–
298.15 K, 10000 kPa	908.34 kg/m3	–	–
298.15 K, 15000 kPa	912.57 kg/m3	–	–
298.15 K, 20000 kPa	916.67 kg/m3	–	–
298.15 K, 25000 kPa	920.61 kg/m3	–	–
298.15 K, 30000 kPa	924.3 kg/m3	–	–
298.15 K, 35000 kPa	928.03 kg/m3	–	–
298.15 K, 40000 kPa	931.52 kg/m3	–	–
298.15 K, 45000 kPa	934.92 kg/m3	–	–
298.15 K, 50000 kPa	938.29 kg/m3	–	–
298.15 K, 55000 kPa	941.41 kg/m3	–	–
298.15 K, 60000 kPa	944.69 kg/m3	–	–
298.15 K, 65000 kPa	947.7 kg/m3	–	–
300.65 K, 100 kPa	896.4 kg/m3	1184.1	0.4774
303.15 K, 100 kPa	893.64 kg/m3 and 893.58 kg/m3	1172.5	0.4637
303.15 K, 2000 kPa	895.61 kg/m3	–	–
303.15 K, 5000 kPa	898.41 kg/m3	–	–
303.15 K, 7000 kPa	900.35 kg/m3	–	–
303.15 K, 10000 kPa	903.06 kg/m3	–	–
303.15 K, 15000 kPa	907.56 kg/m3	–	–
303.15 K, 20000 kPa	911.72 kg/m3	–	–
303.15 K, 25000 kPa	915.8 kg/m3	–	–
303.15 K, 30000 kPa	919.58 kg/m3	–	–
303.15 K, 35000 kPa	923.37 kg/m3	–	–
303.15 K, 40000 kPa	927 kg/m3	–	–
303.15 K, 45000 kPa	930.47 kg/m3	–	–
303.15 K, 50000 kPa	933.84 kg/m3	–	–
303.15 K, 55000 kPa	937.1 kg/m3	–	–
303.15 K, 60000 kPa	940.35 kg/m3	–	–
303.15 K, 65000 kPa	943.48 kg/m3	–	–
305.65 K, 100 kPa	890.87 kg/m3	1161.8	0.45
308.15 K, 100 kPa	888.1 kg/m3 and 888.06 kg/m3	1151.5	0.4372
308.15 K, 2000 kPa	890.15 kg/m3	–	–
308.15 K, 5000 kPa	893.04 kg/m3	–	–
308.15 K, 7000 kPa	895.02 kg/m3	–	–
308.15 K, 10000 kPa	897.93 kg/m3	–	–
308.15 K, 15000 kPa	902.45 kg/m3	–	–
308.15 K, 20000 kPa	906.8 kg/m3	–	–
308.15 K, 25000 kPa	910.98 kg/m3	–	–
308.15 K, 30000 kPa	914.84 kg/m3	–	–
308.15 K, 35000 kPa	918.68 kg/m3	–	–
308.15 K, 40000 kPa	922.47 kg/m3	–	–
308.15 K, 45000 kPa	925.95 kg/m3	–	–
308.15 K, 50000 kPa	929.45 kg/m3	–	–
308.15 K, 55000 kPa	932.76 kg/m3	–	–
308.15 K, 60000 kPa	936.18 kg/m3	–	–
308.15 K, 65000 kPa	939.24 kg/m3	–	–
310.65 K, 100 kPa	885.31 kg/m3	1140.6	0.4258
313.15 K, 100 kPa	–	–	0.4149
